Source: patent US11312726B2, “Thienodiazepine derivatives and application thereof” (priority 2017, dated 2022)

Experiments:
BRD4-BD1 = BRD4-BD1 (Homo sapiens (Human), UniProt O60885); assay: BRD4 biochemical activity test (TR-FRET), BD1; settings: read-out: BRD4 Binding (BD1), IC50
Source text: (§1) BRD4 Biochemical Activity Test
(§2) 1) BRD4-BD1 and BRD4-BD2 proteins of BPS Company, polypeptide of ANASPEC Company, and test reagent of PerkinElmer Company were used in the experiments;
(§3) 2) The TR-FRET experimental principle was used in the experiment to screen compounds.
(§4) 3) Relevant control compounds
(§5) 1) Preparation of the Compound Plate:
(§6) Preparation of the compound plate in the experiment was achieved by Echo:
(§7) 2) Preparation of Reaction Reagents:
(§8) Relevant reaction reagents should be prepared on the day of the experiment:
(§9) a) Formulation of 1× assay buffer;
(§10) b) Formulation of 3× component solution for the experiment: […]
(§11) 1. The reagent was taken out and placed on ice to naturally melt for later use;
(§12) 2. “Solution A” (protein solution), “solution B” (polypeptide solution), and “solution C” (test reagent solution) used in the experiment were formulated with the 1× assay buffer, and during the formation of the 3× solution from the components used in the experiment reaction system, the amounts of solutions A, B and C must be enough for the required amounts in the experiment.
(§13) 3) Experimental Operation Steps:
(§14) The experiment plate was a plate that contained a gradient concentration of the compound and a corresponding DMSO solution and was prepared with ECHO before the experiment:
(§15) a) The experiment plate was taken out, and 5 μL/well of “solution A” (protein solution) was added to columns 2-23 of the experiment plate, then 5 μL/well of 1× assay buffer was added to columns 1 and 24 of the experiment plate, and columns 1 and 24 were used as Min control in the experiment system;
(§16) b) Centrifugation at 1000 rpm was carried out for 30 seconds;
(§17) c) The plate was incubated at 23° C. for 20 minutes;
(§18) d) After 20 minutes of incubation, 5 μL/well of “solution B” (polypeptide solution) was added to columns 1-24 of the experiment plate;
(§19) e) Centrifugation at 1000 rpm was carried out for 30 seconds;
(§20) f) The plate was incubated at 23° C. for 20 minutes;
(§21) g) After 20 minutes of incubation, 5 μL/well of “solution C” (test reagent solution) was added to columns 1-24 of the experiment plate;
(§22) h) Centrifugation at 1000 rpm was carried out for 30 seconds;
(§23) i) The plate was incubated at 23° C. for 40 minutes;
(§24) j) The experiment plate was placed on EnVision to read the plate.
(§25) a) The corresponding Max control and Min control of each experiment plate were used to convert to the Z′ value of the experiment plate, and the Z′ value of each plate was ensured to be >0.5;
(§26) b) The IC50 value was calculated from the signal of the control compound by XLFIT5, and ensured to be maintained within 3 times of the average value of historical data.

BRD4-BD2 = BRD4-BD2 (Homo sapiens (Human), UniProt O60885); assay: BRD4 biochemical activity test (TR-FRET), BD2; settings: read-out: BRD4 Binding (BD2), IC50
Source text: as §1, §2, §3, §4, §5, §6, §7, §8, §9, §10, §11, §12, §13, §14, §15, §16, §17, §18, §19, §20, §21, §22, §23, §24, §25, §26

Row | Compound | IC50 (BRD4-BD1) | IC50 (BRD4-BD2)
1 | Cc1sc2c(c1C)C(c1ccc(Cl)cc1)=N[C@@H](CC(=O)Nc1ccc3c(c1)C(=O)NC3)c1nnc(C)n1-2 [Compound 1] | 65 nM | 11 nM
2 | Cc1sc2c(c1C)C(c1ccc(Cl)cc1)=N[C@@H](CC(=O)Nc1ccc3c(c1)CNC3=O)c1nnc(C)n1-2 [Compound 2] | 49 nM | 10 nM
3 | Cc1sc2c(c1C)C(c1ccc(Cl)cc1)=N[C@@H](CC(=O)Nc1ccn3c(=O)c(O)cnc3c1)c1nnc(C)n1-2 [Compound 5] | 83 nM | 9 nM
4 | Cc1sc2c(c1C)C(c1ccc(Cl)cc1)=N[C@@H](CC(=O)Nc1n[nH]c(=O)c3ccccc13)c1nnc(C)n1-2 [Compound 8] | 51 nM | 11 nM
5 | Cc1sc2c(c1C)C(c1ccc(Cl)cc1)=N[C@@H](CC(=O)Nc1ccc3c(c1)C1(CC1)C(=O)N3)c1nnc(C)n1-2 [Compound 9] | 49 nM | 11 nM
6 | Cc1sc2c(c1C)C(c1ccc(Cl)cc1)=N[C@@H](CC(=O)Nc1ccc3c(c1)C(=O)NC31CC1)c1nnc(C)n1-2 [Compound 10] | 81 nM | 16 nM
7 | Cc1sc2c(c1C)C(c1ccc(Cl)cc1)=N[C@@H](CC(=O)Nc1ccc3c(c1)C1(CC1)NC3=O)c1nnc(C)n1-2 [Compound 12] | 40 nM | 12 nM
8 | Cc1sc2c(c1C)C(c1ccc(Cl)cc1)=N[C@@H](CC(=O)Nc1ccc3c(c1)COC3)c1nnc(C)n1-2 [Compound 16] | 60 nM | 12 nM
9 | CC(=O)N1Cc2ccc(NC(=O)C[C@@H]3N=C(c4ccc(Cl)cc4)c4c(sc(C)c4C)-n4c(C)nnc43)cc2C1 [Compound 17] | 24 nM | 7 nM
10 | Cc1sc2c(c1C)C(c1ccc(Cl)cc1)=N[C@@H](CC(=O)Nc1ccc3c(c1)CNC3)c1nnc(C)n1-2 [Compound 18] | 23 nM | 8 nM
11 | Cc1sc2c(c1C)C(c1ccc(Cl)cc1)=N[C@@H](CC(=O)Nc1ccc3c(c1)CN(S(C)(=O)=O)C3)c1nnc(C)n1-2 [Compound 19] | 49 nM | 8 nM
12 | Cc1sc2c(c1C)C(c1ccc(Cl)cc1)=N[C@@H](CC(=O)Nc1ccc3c(c1)CN(C(N)=O)C3)c1nnc(C)n1-2 [Compound 20] | 169 nM | 11 nM
13 | Cc1sc2c(c1C)C(c1ccc(Cl)cc1)=N[C@@H](CC(=O)Nc1ccc3c(c1)CC(F)(F)C3)c1nnc(C)n1-2 [Compound 21] | 522 nM | 34 nM
14 | Cc1sc2c(c1C)C(c1ccc(Cl)cc1)=N[C@@H](CC(=O)Nc1ccc3c(c1)C(=O)SC3)c1nnc(C)n1-2 [Compound 22] | 199 nM | 10 nM
15 | Cc1sc2c(c1C)C(c1ccc(Cl)cc1)=N[C@@H](CC(=O)Nc1ccc3c(c1)C[C@@H](F)C3)c1nnc(C)n1-2 [Compound 24] | 206 nM | 17 nM
16 | Cc1sc2c(c1C)C(c1ccc(Cl)cc1)=N[C@@H](CC(=O)Nc1ccc3c(c1C)COC3)c1nnc(C)n1-2 [Compound 25] | 79 nM | 20 nM
17 | Cc1cc2c(cc1NC(=O)C[C@@H]1N=C(c3ccc(Cl)cc3)c3c(sc(C)c3C)-n3c(C)nnc31)COC2 [Compound 26] | 112 nM | 30 nM
18 | Cc1sc2c(c1C)C(c1ccc(Cl)cc1)=N[C@@H](CC(=O)Nc1ccc3c(c1)CC1(COC1)C3)c1nnc(C)n1-2 [Compound 27] | 55 nM | 9 nM
19 | Cc1sc2c(c1C)C(c1ccc(Cl)cc1)=N[C@@H](CC(=O)Nc1cc3c(cc1Cl)COC3)c1nnc(C)n1-2 [Compound 28] | 60 nM | 15 nM
20 | Cc1sc2c(c1C)C(c1ccc(Cl)cc1)=N[C@@H](CC(=O)Nc1cc3c(cc1F)COC3)c1nnc(C)n1-2 [Compound 29] | 74 nM | 16 nM
21 | Cc1sc2c(c1C)C(c1ccc(Cl)cc1)=N[C@@H](CC(=O)Nc1ccc3c(c1)C(=O)OC3)c1nnc(C)n1-2 [Compound 30] | 51 nM | 9 nM
22 | Cc1sc2c(c1C)C(c1ccc(Cl)cc1)=N[C@@H](CC(=O)Nc1ccc3c(c1)OCCOCCOCCO3)c1nnc(C)n1-2 [Compound 31] | 37 nM | 5 nM
23 | Cc1sc2c(c1C)C(c1ccc(Cl)cc1)=N[C@@H](CC(=O)Nc1ccc3nonc3c1)c1nnc(C)n1-2 [Compound 33] | 248 nM | 19 nM
24 | Cc1sc2c(c1C)C(c1ccc(Cl)cc1)=N[C@@H](CC(=O)Nc1ccc3c(c1)[C@H]1CC[C@@H]3O1)c1nnc(C)n1-2 [Compound 35] | 155 nM | 12 nM
25 | Cc1sc2c(c1C)C(c1ccc(Cl)cc1)=N[C@@H](CC(=O)Nc1ccc3c(c1)C(=O)NC3=O)c1nnc(C)n1-2 [Compound 36] | 126 nM | 10 nM
26 | Cc1sc2c(c1C)C(c1ccc(Cl)cc1)=N[C@@H](CC(=O)Nc1ccc3c(c1)C(C)(C)OC3=O)c1nnc(C)n1-2 [Compound 37] | 148 nM | 11 nM
